# US12648979B2, “Compositions comprising sulforaphane or a sulforaphane precursor and Moringa plant components” (Nutramax Laboratories, Inc., priority 2021, dated 2026)
# System: myrosinase
# Assay: Equimolar conversion of glucoraphanin to sulforaphane by myrosinase, HPLC (Example 4)
# Format: biochemical, broccoli
# Experimental: A two-part experiment was conducted to further elucidate the role of ascorbic acid in modulating myrosinase activity. All solutions were prepared in 20 mM Tris-buffered saline, at pH 7.5, previously identified as an optimal for myrosinase activity; each sample tube had 100 mg of freeze-dried broccoli powder accurately weighed in as a source of myrosinase. Experiment was conducted at 38° C. for 2 hours, with sample aliquots removed in 30-minute increments, and both glucoraphanin and sulforaphane content assessed by HPLC. […] A control sample contained no ascorbic acid, and the enzymatic conversion proceeded unassisted by a co-factor. PART 1. In the presence of the fixed concentration of ascorbic acid, 1 mmol/Liter, an increasing amount of broccoli seed extract (about 12% glucoraphanin, w/w) was added, ranging from 250 mg to 500 mg. PART 2. While keeping the amount of broccoli seed extract fixed at 250 mg, the concentration of ascorbic acid was varied from 0.4 mmol/Liter to 3.8 mmol/Liter.
# [1] = PART 1, GR 250 mg AA 1.0 mM, 0 min
# [2] = PART 2, GR 250 mg AA 1.0 mM, 0 min
compound,measurement,setting,value
"C[S+]([O-])CCCC/C(=N\OS(=O)(=O)O)S[C@@H]1O[C@H](CO)[C@@H](O)[C@H](O)[C@H]1O (stereo partly shown) [GR, 4-methylsulfinylbutyl glucosinolate]",Glucoraphanin,"GR 250 mg AA 2.0 mM, 0 min",24.94 µmol
same,Sulforaphane,"GR 250 mg AA 2.0 mM, 0 min",36.05 µmol
same,Sulforaphane,"GR 250 mg AA 2.0 mM, 30 min",60.85 µmol
same,Sulforaphane,"GR 250 mg AA 2.0 mM, 60 min",59.78 µmol
same,Sulforaphane,"GR 250 mg AA 2.0 mM, 90 min",59.85 µmol
same,Sulforaphane,"GR 250 mg AA 2.0 mM, 120 min",58.08 µmol
same,Glucoraphanin,"GR 250 mg AA 2.9 mM, 0 min",22.24 µmol
same,Sulforaphane,"GR 250 mg AA 2.9 mM, 0 min",38.20 µmol
same,Sulforaphane,"GR 250 mg AA 2.9 mM, 30 min",59.95 µmol
same,Sulforaphane,"GR 250 mg AA 2.9 mM, 60 min",59.34 µmol
same,Sulforaphane,"GR 250 mg AA 2.9 mM, 90 min",58.77 µmol
same,Sulforaphane,"GR 250 mg AA 2.9 mM, 120 min",56.99 µmol
same,Glucoraphanin,"GR 250 mg AA 3.8 mM, 0 min",21.70 µmol
same,Sulforaphane,"GR 250 mg AA 3.8 mM, 0 min",37.87 µmol
same,Sulforaphane,"GR 250 mg AA 3.8 mM, 30 min",58.77 µmol
same,Sulforaphane,"GR 250 mg AA 3.8 mM, 60 min",57.79 µmol
same,Sulforaphane,"GR 250 mg AA 3.8 mM, 90 min",58.41 µmol
same,Sulforaphane,"GR 250 mg AA 3.8 mM, 120 min",56.17 µmol
same,Glucoraphanin,"GR 300 mg AA 1.0 mM, 0 min",49.31 µmol
same,Sulforaphane,"GR 300 mg AA 1.0 mM, 0 min",24.18 µmol
same,Sulforaphane,"GR 300 mg AA 1.0 mM, 30 min",74.40 µmol
same,Sulforaphane,"GR 300 mg AA 1.0 mM, 60 min",73.04 µmol
same,Sulforaphane,"GR 300 mg AA 1.0 mM, 90 min",72.19 µmol
same,Sulforaphane,"GR 300 mg AA 1.0 mM, 120 min",70.56 µmol
same,Glucoraphanin,"GR 350 mg AA 1.0 mM, 0 min",61.41 µmol
same,Sulforaphane,"GR 350 mg AA 1.0 mM, 0 min",25.00 µmol
same,Sulforaphane,"GR 350 mg AA 1.0 mM, 30 min",84.92 µmol
same,Sulforaphane,"GR 350 mg AA 1.0 mM, 60 min",84.02 µmol
same,Sulforaphane,"GR 350 mg AA 1.0 mM, 90 min",83.19 µmol
same,Sulforaphane,"GR 350 mg AA 1.0 mM, 120 min",80.02 µmol
same,Glucoraphanin,"GR 400 mg AA 1.0 mM, 0 min",71.35 µmol
same,Sulforaphane,"GR 400 mg AA 1.0 mM, 0 min",26.71 µmol
same,Glucoraphanin,"GR 400 mg AA 1.0 mM, 30 min",1.56 µmol
same,Sulforaphane,"GR 400 mg AA 1.0 mM, 30 min",96.60 µmol
same,Sulforaphane,"GR 400 mg AA 1.0 mM, 60 min",95.38 µmol
same,Sulforaphane,"GR 400 mg AA 1.0 mM, 90 min",93.39 µmol
same,Sulforaphane,"GR 400 mg AA 1.0 mM, 120 min",91.16 µmol
same,Glucoraphanin,"GR 500 mg AA 1.0 mM, 0 min",89.41 µmol
same,Sulforaphane,"GR 500 mg AA 1.0 mM, 0 min",33.52 µmol
same,Glucoraphanin,"GR 500 mg AA 1.0 mM, 30 min",1.01 µmol
same,Sulforaphane,"GR 500 mg AA 1.0 mM, 30 min",120.16 µmol
same,Sulforaphane,"GR 500 mg AA 1.0 mM, 60 min",116.45 µmol
same,Sulforaphane,"GR 500 mg AA 1.0 mM, 90 min",118.45 µmol
same,Sulforaphane,"GR 500 mg AA 1.0 mM, 120 min",112.34 µmol
same,Glucoraphanin,[1],40.07 µmol
same,Sulforaphane,[1],21.51 µmol
same,Sulforaphane,"PART 1, GR 250 mg AA 1.0 mM, 30 min",61.95 µmol
same,Sulforaphane,"PART 1, GR 250 mg AA 1.0 mM, 60 min",60.20 µmol
same,Sulforaphane,"PART 1, GR 250 mg AA 1.0 mM, 90 min",60.04 µmol
same,Sulforaphane,"PART 1, GR 250 mg AA 1.0 mM, 120 min",58.25 µmol
same,Glucoraphanin,[2],35.24 µmol
same,Sulforaphane,[2],26.49 µmol
same,Sulforaphane,"PART 2, GR 250 mg AA 1.0 mM, 30 min",62.19 µmol
same,Sulforaphane,"PART 2, GR 250 mg AA 1.0 mM, 60 min",60.62 µmol
same,Sulforaphane,"PART 2, GR 250 mg AA 1.0 mM, 90 min",60.41 µmol
same,Sulforaphane,"PART 2, GR 250 mg AA 1.0 mM, 120 min",59.10 µmol
same,time to complete conversion of glucoraphanin to sulforaphane,almost all the reaction mixtures,≤ 30 min
same,stoichiometry of conversion of glucoraphanin to sulforaphane,"control sample, without ascorbic acid",equimolar conversion of glucoraphanin to sulforaphane
